{"source": "the NIST ThermoML archive (doi:10.1021/je500205z)", "key": {"[1]": {"test": "an = ratio of the nth substance listed", "conditions": "293.15 K, Maximal bubble pressure"}, "[2]": {"conditions": "Maximal bubble pressure"}}, "note": "Numbers after ± are expanded uncertainties.", "data": [{"smiles": "C=Cn1cc[n+](CCCCCCCC)c1.[Br-]", "note": "[1-ethenyl-3-octylimidazolium bromide] + O", "values": [{"measurement": "surface tension liquid-gas", "setting": "[1]; a1 = 4.059", "value": "38.86 ± 0.4", "unit": "mN/m"}]}, {"smiles": "C=C[n+]1ccn(CCCCCCCCCC)c1.[Br-]", "note": "[1-decyl-3-ethenylimidazolium bromide] + CC(C)=O", "values": [{"measurement": "surface tension liquid-gas", "setting": "[1]; a1 = 0.5403", "value": "23.39 ± 0.38", "unit": "mN/m"}]}, {"smiles": "C=Cn1cc[n+](CCCCC)c1.[Br-]", "note": "[1-ethenyl-3-pentylimidazolium bromide]", "values": [{"measurement": "surface tension liquid-gas", "setting": "[2]; 303.15 K", "value": "67.08 ± 0.78", "unit": "mN/m"}, {"measurement": "surface tension liquid-gas", "setting": "[2]; 308.15 K", "value": "64.11 ± 0.74", "unit": "mN/m"}, {"measurement": "surface tension liquid-gas", "setting": "[2]; 313.15 K", "value": "61.08 ± 0.71", "unit": "mN/m"}, {"measurement": "surface tension liquid-gas", "setting": "[2]; 318.15 K", "value": "58.28 ± 0.68", "unit": "mN/m"}, {"measurement": "surface tension liquid-gas", "setting": "[2]; 323.15 K", "value": "55.53 ± 0.65", "unit": "mN/m"}, {"measurement": "surface tension liquid-gas", "setting": "[2]; 328.15 K", "value": "53.24 ± 0.62", "unit": "mN/m"}, {"measurement": "surface tension liquid-gas", "setting": "[2]; 333.15 K", "value": "50.59 ± 0.59", "unit": "mN/m"}]}, {"smiles": "C=C[n+]1ccn(CCCCCCCCCC)c1.[Br-]", "note": "[1-decyl-3-ethenylimidazolium bromide] + O", "values": [{"measurement": "surface tension liquid-gas", "setting": "[1]; a1 = 3.263", "value": "35.27 ± 0.37", "unit": "mN/m"}]}, {"smiles": "C=Cn1cc[n+](CCCCCC)c1.[Br-]", "note": "[3-hexyl-1-vinyl-1H-imidazol-3-ium bromide] + CC(C)=O", "values": [{"measurement": "surface tension liquid-gas", "setting": "[1]; a1 = 0.6455", "value": "24.3 ± 0.39", "unit": "mN/m"}]}, {"smiles": "C=Cn1cc[n+](CCCCCCCC)c1.[Br-]", "note": "[1-ethenyl-3-octylimidazolium bromide] + CCO", "values": [{"measurement": "surface tension liquid-gas", "setting": "[1]; a1 = 1.497", "value": "23.07 ± 0.37", "unit": "mN/m"}]}, {"smiles": "C=Cn1cc[n+](C(C)C(=O)OCC)c1.[Cl-]", "note": "(configuration not stated)", "values": [{"measurement": "surface tension liquid-gas", "setting": "[2]; 293.15 K", "value": "66.75 ± 0.77", "unit": "mN/m"}, {"measurement": "surface tension liquid-gas", "setting": "[2]; 298.15 K", "value": "63.9 ± 0.74", "unit": "mN/m"}, {"measurement": "surface tension liquid-gas", "setting": "[2]; 303.15 K", "value": "61.18 ± 0.71", "unit": "mN/m"}, {"measurement": "surface tension liquid-gas", "setting": "[2]; 308.15 K", "value": "58.46 ± 0.68", "unit": "mN/m"}, {"measurement": "surface tension liquid-gas", "setting": "[2]; 313.15 K", "value": "55.89 ± 0.65", "unit": "mN/m"}, {"measurement": "surface tension liquid-gas", "setting": "[2]; 318.15 K", "value": "53.02 ± 0.62", "unit": "mN/m"}, {"measurement": "surface tension liquid-gas", "setting": "[2]; 323.15 K", "value": "50.55 ± 0.59", "unit": "mN/m"}, {"measurement": "surface tension liquid-gas", "setting": "[2]; 328.15 K", "value": "48.14 ± 0.57", "unit": "mN/m"}, {"measurement": "surface tension liquid-gas", "setting": "[2]; 333.15 K", "value": "45.54 ± 0.54", "unit": "mN/m"}]}, {"smiles": "C=Cn1cc[n+](CCCCCC)c1.[Br-]", "note": "[3-hexyl-1-vinyl-1H-imidazol-3-ium bromide] + CCO", "values": [{"measurement": "surface tension liquid-gas", "setting": "[1]; a1 = 1.744", "value": "25.16 ± 0.4", "unit": "mN/m"}]}, {"smiles": "C=Cn1cc[n+](CCCCCCCC)c1.[Br-]", "note": "[1-ethenyl-3-octylimidazolium bromide] + c1ccccc1", "values": [{"measurement": "surface tension liquid-gas", "setting": "[1]; a1 = 0.08467", "value": "29.32 ± 0.46", "unit": "mN/m"}]}, {"smiles": "CCO", "note": "[ethanol]", "values": [{"measurement": "surface tension liquid-gas", "setting": "[2]; 293.15 K", "value": "22.27 ± 0.41", "unit": "mN/m"}]}, {"smiles": "C=Cn1cc[n+](CCCCCCCC)c1.[Br-]", "note": "[1-ethenyl-3-octylimidazolium bromide] + CC(C)=O", "values": [{"measurement": "surface tension liquid-gas", "setting": "[1]; a1 = 0.5788", "value": "23.94 ± 0.39", "unit": "mN/m"}]}, {"smiles": "C=C[n+]1ccn(CCCCCCCCCC)c1.[Br-]", "note": "[1-decyl-3-ethenylimidazolium bromide] + CCO", "values": [{"measurement": "surface tension liquid-gas", "setting": "[1]; a1 = 1.255", "value": "22.27 ± 0.36", "unit": "mN/m"}]}, {"smiles": "C=C[n+]1ccn(CCCCCCCCCC)c1.[Br-]", "note": "[1-decyl-3-ethenylimidazolium bromide] + c1ccccc1", "values": [{"measurement": "surface tension liquid-gas", "setting": "[1]; a1 = 0.1035", "value": "29.08 ± 0.46", "unit": "mN/m"}]}, {"smiles": "C=C[n+]1ccn(CCCCCCCCCC)c1.[Br-]", "note": "[1-decyl-3-ethenylimidazolium bromide]", "values": [{"measurement": "surface tension liquid-gas", "setting": "[2]; 293.15 K", "value": "53.48 ± 0.63", "unit": "mN/m"}, {"measurement": "surface tension liquid-gas", "setting": "[2]; 298.15 K", "value": "50.63 ± 0.6", "unit": "mN/m"}, {"measurement": "surface tension liquid-gas", "setting": "[2]; 303.15 K", "value": "47.76 ± 0.56", "unit": "mN/m"}, {"measurement": "surface tension liquid-gas", "setting": "[2]; 308.15 K", "value": "44.56 ± 0.53", "unit": "mN/m"}, {"measurement": "surface tension liquid-gas", "setting": "[2]; 313.15 K", "value": "41.8 ± 0.5", "unit": "mN/m"}, {"measurement": "surface tension liquid-gas", "setting": "[2]; 318.15 K", "value": "39.03 ± 0.47", "unit": "mN/m"}, {"measurement": "surface tension liquid-gas", "setting": "[2]; 323.15 K", "value": "36.2 ± 0.44", "unit": "mN/m"}, {"measurement": "surface tension liquid-gas", "setting": "[2]; 328.15 K", "value": "33.77 ± 0.41", "unit": "mN/m"}, {"measurement": "surface tension liquid-gas", "setting": "[2]; 333.15 K", "value": "32.04 ± 0.39", "unit": "mN/m"}]}, {"smiles": "C=Cn1cc[n+](CCCCCC)c1.[Br-]", "note": "[3-hexyl-1-vinyl-1H-imidazol-3-ium bromide]", "values": [{"measurement": "surface tension liquid-gas", "setting": "[2]; 293.15 K", "value": "62.29 ± 0.72", "unit": "mN/m"}, {"measurement": "surface tension liquid-gas", "setting": "[2]; 298.15 K", "value": "59.52 ± 0.69", "unit": "mN/m"}, {"measurement": "surface tension liquid-gas", "setting": "[2]; 303.15 K", "value": "56.81 ± 0.66", "unit": "mN/m"}, {"measurement": "surface tension liquid-gas", "setting": "[2]; 308.15 K", "value": "53.95 ± 0.63", "unit": "mN/m"}, {"measurement": "surface tension liquid-gas", "setting": "[2]; 313.15 K", "value": "51.15 ± 0.6", "unit": "mN/m"}, {"measurement": "surface tension liquid-gas", "setting": "[2]; 318.15 K", "value": "48.44 ± 0.57", "unit": "mN/m"}, {"measurement": "surface tension liquid-gas", "setting": "[2]; 323.15 K", "value": "45.67 ± 0.54", "unit": "mN/m"}, {"measurement": "surface tension liquid-gas", "setting": "[2]; 328.15 K", "value": "43.01 ± 0.51", "unit": "mN/m"}, {"measurement": "surface tension liquid-gas", "setting": "[2]; 333.15 K", "value": "40.4 ± 0.48", "unit": "mN/m"}]}, {"smiles": "C=Cn1cc[n+](CCCCCC)c1.[Br-]", "note": "[3-hexyl-1-vinyl-1H-imidazol-3-ium bromide] + ClC(Cl)Cl", "values": [{"measurement": "surface tension liquid-gas", "setting": "[1]; a1 = 0.5682", "value": "27.94 ± 0.44", "unit": "mN/m"}]}, {"smiles": "C=Cn1cc[n+](CCCCCCCC)c1.[Br-]", "note": "[1-ethenyl-3-octylimidazolium bromide] + ClC(Cl)Cl", "values": [{"measurement": "surface tension liquid-gas", "setting": "[1]; a1 = 0.6921", "value": "27.79 ± 0.44", "unit": "mN/m"}]}, {"smiles": "C=Cn1cc[n+](CCCCCC)c1.[Br-]", "note": "[3-hexyl-1-vinyl-1H-imidazol-3-ium bromide] + c1ccccc1", "values": [{"measurement": "surface tension liquid-gas", "setting": "[1]; a1 = 0.02207", "value": "29.6 ± 0.46", "unit": "mN/m"}]}, {"smiles": "C=Cn1cc[n+](CCCCCC)c1.[Br-]", "note": "[3-hexyl-1-vinyl-1H-imidazol-3-ium bromide] + O", "values": [{"measurement": "surface tension liquid-gas", "setting": "[1]; a1 = 5.388", "value": "46.87 ± 0.46", "unit": "mN/m"}]}, {"smiles": "C=C[n+]1ccn(CCCCCCCCCC)c1.[Br-]", "note": "[1-decyl-3-ethenylimidazolium bromide] + ClC(Cl)Cl", "values": [{"measurement": "surface tension liquid-gas", "setting": "[1]; a1 = 0.7667", "value": "27 ± 0.43", "unit": "mN/m"}]}, {"smiles": "CC(C)=O", "note": "[acetone]", "values": [{"measurement": "surface tension liquid-gas", "setting": "[2]; 293.15 K", "value": "23.7 ± 0.43", "unit": "mN/m"}]}, {"smiles": "C=Cn1cc[n+](CCCCCCCC)c1.[Br-]", "note": "[1-ethenyl-3-octylimidazolium bromide]", "values": [{"measurement": "surface tension liquid-gas", "setting": "[2]; 293.15 K", "value": "59.74 ± 0.7", "unit": "mN/m"}, {"measurement": "surface tension liquid-gas", "setting": "[2]; 298.15 K", "value": "56.82 ± 0.66", "unit": "mN/m"}, {"measurement": "surface tension liquid-gas", "setting": "[2]; 303.15 K", "value": "54.04 ± 0.63", "unit": "mN/m"}, {"measurement": "surface tension liquid-gas", "setting": "[2]; 308.15 K", "value": "51.22 ± 0.6", "unit": "mN/m"}, {"measurement": "surface tension liquid-gas", "setting": "[2]; 313.15 K", "value": "48.55 ± 0.57", "unit": "mN/m"}, {"measurement": "surface tension liquid-gas", "setting": "[2]; 318.15 K", "value": "45.79 ± 0.54", "unit": "mN/m"}, {"measurement": "surface tension liquid-gas", "setting": "[2]; 323.15 K", "value": "43.18 ± 0.51", "unit": "mN/m"}, {"measurement": "surface tension liquid-gas", "setting": "[2]; 328.15 K", "value": "40.6 ± 0.49", "unit": "mN/m"}, {"measurement": "surface tension liquid-gas", "setting": "[2]; 333.15 K", "value": "38.24 ± 0.46", "unit": "mN/m"}]}, {"smiles": "ClC(Cl)Cl", "note": "[trichloromethane]", "values": [{"measurement": "surface tension liquid-gas", "setting": "[2]; 293.15 K", "value": "27.14 ± 0.48", "unit": "mN/m"}]}, {"smiles": "c1ccccc1", "note": "[benzene]", "values": [{"measurement": "surface tension liquid-gas", "setting": "[2]; 293.15 K", "value": "28.18 ± 0.5", "unit": "mN/m"}]}]}
